{"source": "PubChem BioAssay (NCI)", "assay_in_all_cases": "DTP human tumour cell line panel, 48 h", "key": {"T-47D breast": {"tested_on": "T-47D breast"}, "PC-3 prostate": {"tested_on": "PC-3 prostate"}, "U251 CNS": {"tested_on": "U251 CNS"}, "EKVX NSCLC": {"tested_on": "EKVX NSCLC"}, "SF-295 CNS": {"tested_on": "SF-295 CNS"}, "SNB-75 CNS": {"tested_on": "SNB-75 CNS"}, "NCI/ADR-RES ovarian": {"tested_on": "NCI/ADR-RES ovarian"}, "OVCAR-4 ovarian": {"tested_on": "OVCAR-4 ovarian"}, "ACHN renal": {"tested_on": "ACHN renal"}, "LOX IMVI melanoma": {"tested_on": "LOX IMVI melanoma"}, "MALME-3M melanoma": {"tested_on": "MALME-3M melanoma"}, "UACC-62 melanoma": {"tested_on": "UACC-62 melanoma"}, "OVCAR-3 ovarian": {"tested_on": "OVCAR-3 ovarian"}, "OVCAR-5 ovarian": {"tested_on": "OVCAR-5 ovarian"}, "A549 NSCLC": {"tested_on": "A549 NSCLC"}, "A498 renal": {"tested_on": "A498 renal"}, "UO-31 renal": {"tested_on": "UO-31 renal"}, "UACC-257 melanoma": {"tested_on": "UACC-257 melanoma"}, "SK-OV-3 ovarian": {"tested_on": "SK-OV-3 ovarian"}, "SF-268 CNS": {"tested_on": "SF-268 CNS"}, "SNB-19 CNS": {"tested_on": "SNB-19 CNS"}, "NCI-H460 lung": {"tested_on": "NCI-H460 lung"}, "TK-10 renal": {"tested_on": "TK-10 renal"}, "OVCAR-8 ovarian": {"tested_on": "OVCAR-8 ovarian"}, "IGROV1 ovarian": {"tested_on": "IGROV1 ovarian"}, "DU-145 prostate": {"tested_on": "DU-145 prostate"}, "786-0 renal": {"tested_on": "786-0 renal"}, "M14 melanoma": {"tested_on": "M14 melanoma"}, "NCI-H522 lung": {"tested_on": "NCI-H522 lung"}, "MDA-MB-231 breast": {"tested_on": "MDA-MB-231 breast"}, "NCI-H23 lung": {"tested_on": "NCI-H23 lung"}, "HS 578T breast": {"tested_on": "HS 578T breast"}, "HT29 colon": {"tested_on": "HT29 colon"}, "SF-539 CNS": {"tested_on": "SF-539 CNS"}, "SN12C renal": {"tested_on": "SN12C renal"}, "SK-MEL-28 melanoma": {"tested_on": "SK-MEL-28 melanoma"}, "NCI-H226 lung": {"tested_on": "NCI-H226 lung"}, "HCT-116 colon": {"tested_on": "HCT-116 colon"}, "MCF7 breast": {"tested_on": "MCF7 breast"}, "CAKI-1 renal": {"tested_on": "CAKI-1 renal"}, "SK-MEL-5 melanoma": {"tested_on": "SK-MEL-5 melanoma"}, "RXF 393 renal": {"tested_on": "RXF 393 renal"}, "HOP-92 NSCLC": {"tested_on": "HOP-92 NSCLC"}}, "note": "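Five concentrations, 48 hours, 96-well plates. GI50 = concentration required for 50% inhibition of growth. The concentration for full growth arrest is given as TGI.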", "data": [{"smiles": "COc1cc2nc(-c3ccc(-n4cncc4-c4ccc(N)cc4)cc3)sc2c(OC)c1OC", "values": [{"measurement": "GI50", "setting": "T-47D breast", "result": 1.59, "unit": "µM"}, {"measurement": "TGI", "setting": "T-47D breast", "result": 6.71, "unit": "µM"}, {"measurement": "GI50", "setting": "PC-3 prostate", "result": 3.02, "unit": "µM"}, {"measurement": "TGI", "setting": "PC-3 prostate", "result": 49.2, "unit": "µM"}, {"measurement": "GI50", "setting": "U251 CNS", "result": 3.84, "unit": "µM"}, {"measurement": "TGI", "setting": "U251 CNS", "result": 17, "unit": "µM"}, {"measurement": "GI50", "setting": "EKVX NSCLC", "result": 2.49, "unit": "µM"}, {"measurement": "TGI", "setting": "EKVX NSCLC", "result": 75.9, "unit": "µM"}, {"measurement": "GI50", "setting": "SF-295 CNS", "result": 1.53, "unit": "µM"}, {"measurement": "TGI", "setting": "SF-295 CNS", "result": 7.14, "unit": "µM"}, {"measurement": "GI50", "setting": "SNB-75 CNS", "result": 5.94, "unit": "µM"}, {"measurement": "TGI", "setting": "SNB-75 CNS", "result": 23.5, "unit": "µM"}, {"measurement": "GI50", "setting": "NCI/ADR-RES ovarian", "result": 1.61, "unit": "µM"}, {"measurement": "TGI", "setting": "NCI/ADR-RES ovarian", "result": 6.43, "unit": "µM"}, {"measurement": "GI50", "setting": "OVCAR-4 ovarian", "result": 3.6, "unit": "µM"}, {"measurement": "TGI", "setting": "OVCAR-4 ovarian", "result": 32.1, "unit": "µM"}, {"measurement": "GI50", "setting": "ACHN renal", "result": 8.56, "unit": "µM"}, {"measurement": "TGI", "setting": "ACHN renal", "result": "> 100", "unit": "µM"}, {"measurement": "GI50", "setting": "LOX IMVI melanoma", "result": 3.65, "unit": "µM"}, {"measurement": "TGI", "setting": "LOX IMVI melanoma", "result": "> 100", "unit": "µM"}, {"measurement": "GI50", "setting": "MALME-3M melanoma", "result": 0.71, "unit": "µM"}, {"measurement": "TGI", "setting": "MALME-3M melanoma", "result": 6.44, "unit": "µM"}, {"measurement": "GI50", "setting": "UACC-62 melanoma", "result": 5.45, "unit": "µM"}, {"measurement": "TGI", "setting": "UACC-62 melanoma", "result": "> 100", "unit": "µM"}, {"measurement": "GI50", "setting": "OVCAR-3 ovarian", "result": 2.73, "unit": "µM"}, {"measurement": "TGI", "setting": "OVCAR-3 ovarian", "result": 15.1, "unit": "µM"}, {"measurement": "GI50", "setting": "OVCAR-5 ovarian", "result": 34.3, "unit": "µM"}, {"measurement": "TGI", "setting": "OVCAR-5 ovarian", "result": "> 100", "unit": "µM"}, {"measurement": "GI50", "setting": "A549 NSCLC", "result": 3.14, "unit": "µM"}, {"measurement": "TGI", "setting": "A549 NSCLC", "result": 32.5, "unit": "µM"}, {"measurement": "GI50", "setting": "A498 renal", "result": 2.13, "unit": "µM"}, {"measurement": "TGI", "setting": "A498 renal", "result": "> 100", "unit": "µM"}, {"measurement": "GI50", "setting": "UO-31 renal", "result": 1.55, "unit": "µM"}, {"measurement": "TGI", "setting": "UO-31 renal", "result": 6.87, "unit": "µM"}, {"measurement": "GI50", "setting": "UACC-257 melanoma", "result": 6.4, "unit": "µM"}, {"measurement": "TGI", "setting": "UACC-257 melanoma", "result": "> 100", "unit": "µM"}, {"measurement": "GI50", "setting": "SK-OV-3 ovarian", "result": 11.7, "unit": "µM"}, {"measurement": "TGI", "setting": "SK-OV-3 ovarian", "result": 31.3, "unit": "µM"}, {"measurement": "GI50", "setting": "SF-268 CNS", "result": 12.3, "unit": "µM"}, {"measurement": "TGI", "setting": "SF-268 CNS", "result": 62.1, "unit": "µM"}, {"measurement": "GI50", "setting": "SNB-19 CNS", "result": 12.3, "unit": "µM"}, {"measurement": "TGI", "setting": "SNB-19 CNS", "result": 51.1, "unit": "µM"}, {"measurement": "GI50", "setting": "NCI-H460 lung", "result": 5.13, "unit": "µM"}, {"measurement": "TGI", "setting": "NCI-H460 lung", "result": "> 100", "unit": "µM"}, {"measurement": "GI50", "setting": "TK-10 renal", "result": 4.93, "unit": "µM"}, {"measurement": "TGI", "setting": "TK-10 renal", "result": "> 100", "unit": "µM"}, {"measurement": "GI50", "setting": "OVCAR-8 ovarian", "result": 4.23, "unit": "µM"}, {"measurement": "TGI", "setting": "OVCAR-8 ovarian", "result": 57.8, "unit": "µM"}, {"measurement": "GI50", "setting": "IGROV1 ovarian", "result": 2.63, "unit": "µM"}, {"measurement": "TGI", "setting": "IGROV1 ovarian", "result": 20.2, "unit": "µM"}, {"measurement": "GI50", "setting": "DU-145 prostate", "result": 7.25, "unit": "µM"}, {"measurement": "TGI", "setting": "DU-145 prostate", "result": "> 100", "unit": "µM"}, {"measurement": "GI50", "setting": "786-0 renal", "result": 6.26, "unit": "µM"}, {"measurement": "TGI", "setting": "786-0 renal", "result": "> 100", "unit": "µM"}, {"measurement": "GI50", "setting": "M14 melanoma", "result": 2.1, "unit": "µM"}, {"measurement": "TGI", "setting": "M14 melanoma", "result": "> 100", "unit": "µM"}, {"measurement": "GI50", "setting": "NCI-H522 lung", "result": 2.74, "unit": "µM"}, {"measurement": "TGI", "setting": "NCI-H522 lung", "result": 21.6, "unit": "µM"}, {"measurement": "GI50", "setting": "MDA-MB-231 breast", "result": 3.66, "unit": "µM"}, {"measurement": "TGI", "setting": "MDA-MB-231 breast", "result": "> 100", "unit": "µM"}, {"measurement": "GI50", "setting": "NCI-H23 lung", "result": 3.87, "unit": "µM"}, {"measurement": "TGI", "setting": "NCI-H23 lung", "result": 23.7, "unit": "µM"}, {"measurement": "GI50", "setting": "HS 578T breast", "result": 5.36, "unit": "µM"}, {"measurement": "TGI", "setting": "HS 578T breast", "result": 49.7, "unit": "µM"}, {"measurement": "GI50", "setting": "HT29 colon", "result": 2.79, "unit": "µM"}, {"measurement": "TGI", "setting": "HT29 colon", "result": "> 100", "unit": "µM"}, {"measurement": "GI50", "setting": "SF-539 CNS", "result": 7.14, "unit": "µM"}, {"measurement": "TGI", "setting": "SF-539 CNS", "result": "> 100", "unit": "µM"}, {"measurement": "GI50", "setting": "SN12C renal", "result": 8.95, "unit": "µM"}, {"measurement": "TGI", "setting": "SN12C renal", "result": "> 100", "unit": "µM"}, {"measurement": "GI50", "setting": "SK-MEL-28 melanoma", "result": "> 100", "unit": "µM"}, {"measurement": "TGI", "setting": "SK-MEL-28 melanoma", "result": "> 100", "unit": "µM"}, {"measurement": "GI50", "setting": "NCI-H226 lung", "result": 4.73, "unit": "µM"}, {"measurement": "TGI", "setting": "NCI-H226 lung", "result": 40.6, "unit": "µM"}, {"measurement": "GI50", "setting": "HCT-116 colon", "result": 3.81, "unit": "µM"}, {"measurement": "TGI", "setting": "HCT-116 colon", "result": "> 100", "unit": "µM"}, {"measurement": "GI50", "setting": "MCF7 breast", "result": 3.02, "unit": "µM"}, {"measurement": "TGI", "setting": "MCF7 breast", "result": "> 100", "unit": "µM"}, {"measurement": "GI50", "setting": "CAKI-1 renal", "result": 1.41, "unit": "µM"}, {"measurement": "TGI", "setting": "CAKI-1 renal", "result": 5.85, "unit": "µM"}, {"measurement": "GI50", "setting": "SK-MEL-5 melanoma", "result": 2.74, "unit": "µM"}, {"measurement": "TGI", "setting": "SK-MEL-5 melanoma", "result": "> 100", "unit": "µM"}, {"measurement": "GI50", "setting": "RXF 393 renal", "result": 4.41, "unit": "µM"}, {"measurement": "TGI", "setting": "RXF 393 renal", "result": 21.1, "unit": "µM"}, {"measurement": "GI50", "setting": "HOP-92 NSCLC", "result": 0.446, "unit": "µM"}, {"measurement": "TGI", "setting": "HOP-92 NSCLC", "result": 4.08, "unit": "µM"}]}, {"smiles": "CCCC1CCC(O)(C(C)(O)C(=O)NC2C(=O)N3NCCCC3C(=O)N(O)C(C)C(=O)N3NCCCC3C(=O)N3NCC(O)CC3C(=O)NC(C)C(=O)OC2C(C)C)OC1CC", "note": "(stereo not drawn)", "values": [{"measurement": "TGI", "setting": "NCI/ADR-RES ovarian", "result": "> 5.53", "unit": "µM"}, {"measurement": "GI50", "setting": "NCI-H522 lung", "result": "> 25", "unit": "µM"}, {"measurement": "TGI", "setting": "NCI-H522 lung", "result": "> 25", "unit": "µM"}, {"measurement": "GI50", "setting": "NCI-H226 lung", "result": "> 25", "unit": "µM"}, {"measurement": "TGI", "setting": "NCI-H226 lung", "result": "> 25", "unit": "µM"}, {"measurement": "GI50", "setting": "RXF 393 renal", "result": "> 25", "unit": "µM"}, {"measurement": "TGI", "setting": "RXF 393 renal", "result": "> 25", "unit": "µM"}]}]}
